Results taken from patent publication US6191118A (Taisho Pharmaceutical Co., Ltd., priority 1996, dated 2001).
Converted amounts (≈) assume the structure as drawn.

How the values were obtained:
Type in all cases: cell-based
S. pneumoniae BM 210 = assay: In vitro antibacterial activity (MIC), S. pneumoniae BM 210; details: Streptococcus pneumoniae, BM210, sensitive disc media, Japan Society of Chemotherapy method, read-out: MIC (Minimum Inhibitory Concentration)
Experimental: (§1) The in vitro antibacterial activity of the compound obtained in Example 4 as an example of the compound of the present invention against various experimental bacteria was measured using sensitive disc media (produced by Eiken Chemical Co.) according to the MIC measuring method specified by the Japan Society of Chemotherapy. Clarithromycin was used as a comparative drug.

S. aureus B1 = assay: In vitro antibacterial activity (MIC), S. aureus B1; details: Staphylococcus aureus, sensitive disc media, Japan Society of Chemotherapy method, read-out: MIC (Minimum Inhibitory Concentration)
Experimental: as §1

S. pneumoniae BM 205 = assay: In vitro antibacterial activity (MIC), S. pneumoniae BM 205; details: Streptococcus pneumoniae, BM205, sensitive disc media, Japan Society of Chemotherapy method, read-out: MIC (Minimum Inhibitory Concentration)
Experimental: as §1

S. pneumoniae IID 553 = assay: In vitro antibacterial activity (MIC), S. pneumoniae IID 553; details: Streptococcus pneumoniae, IID553, sensitive disc media, Japan Society of Chemotherapy method, read-out: MIC (Minimum Inhibitory Concentration)
Experimental: as §1

S. aureus J-109 = assay: In vitro antibacterial activity (MIC), S. aureus J-109; details: Staphylococcus aureus, J109, sensitive disc media, Japan Society of Chemotherapy method, read-out: MIC (Minimum Inhibitory Concentration)
Experimental: as §1

[1] = test system: erythromycin-sensitive bacteria; assay: Antibacterial activity against erythromycin-sensitive bacteria (in words)
Experimental: as §1

S. aureus Smith = assay: In vitro antibacterial activity (MIC), S. aureus Smith; details: Staphylococcus aureus, sensitive disc media, Japan Society of Chemotherapy method, read-out: MIC (Minimum Inhibitory Concentration)
Experimental: as §1

S. aureus 209P-JC = assay: In vitro antibacterial activity (MIC), S. aureus 209P-JC; details: Staphylococcus aureus, sensitive disc media, Japan Society of Chemotherapy method, read-out: MIC (Minimum Inhibitory Concentration)
Experimental: as §1

[2] = test system: erythromycin-resistant bacteria; assay: Antibacterial activity against erythromycin-resistant bacteria (in words)
Experimental: as §1

Structure (SMILES) | MIC (S. pneumoniae BM 210) [µg/mL] | MIC (S. aureus B1) [µg/mL] | MIC (S. pneumoniae BM 205) [µg/mL] | MIC (S. pneumoniae IID 553) [µg/mL] | MIC (S. aureus J-109) [µg/mL] | antibacterial activity [1] | MIC (S. aureus Smith) [µg/mL] | MIC (S. aureus 209P-JC) [µg/mL] | antibacterial activity [2]
CC[C@H]1OC(=O)[C@H](C)[C@@H](O[C@H]2C[C@@](C)(OC)[C@@H](O)[C@H](C)O2)[C@H](C)[C@@H](O[C@@H]2O[C@H](C)C[C@H](N(C)C)[C@H]2O)[C@](C)(OC)C[C@@H](C)C(=O)[C@H](C)[C@@H](O)[C@]1(C)O [Comparative drug, Clarithromycin, reference compound] | 1.56 (≈ 2.09 µM) | > 100 | > 100 | 0.1 (≈ 0.134 µM) | > 100 |  |  |  | 
CC[C@H]1OC(=O)[C@H](C)[C@@H](OC(=O)Cc2ccccn2)[C@H](C)[C@@H](O[C@@H]2O[C@H](C)C[C@H](N(C)C)[C@H]2O)[C@](C)(OC)C[C@@H](C)C(=O)[C@H](C)[C@H]2N(CCN(C)Cc3cccnc3)C(=O)O[C@]12C [Example 4, 11-{2-[N-methyl-N-(3-pyridylmethyl)amino]ethyl}amino-11-deoxy-3-O-(2-pyridyl)acetyl-5-O-desosaminyl-6-O-methylerythronolide A 11,12-cyclic carbamate] | 0.39 (≈ 0.442 µM) | 0.39 (≈ 0.442 µM) | 0.39 (≈ 0.442 µM) | 0.1 (≈ 0.113 µM) | > 100 | strong antibacterial activity | 0.2 (≈ 0.227 µM) | 0.1 (≈ 0.113 µM) | strong antibacterial activity
